Assay results published in patent US20240415814A1, “PHARMACEUTICAL COMPOSITION COMPRISING 1-(3-CYANO-1-ISOPROPYL-INDOL-5-YL)PYRAZOLE-4-CARBOXYLIC ACID” (LG CHEM, LTD., priority 2021, published 2024).
Read-outs that look alike come from different tables or passages of the source.

Experiments:
Assay type in all cases: in vivo, human
[1] = Phase 2 clinical trial: analysis of TEAEs
Procedure: Selected patients gave written informed consent according to institutional and study procedures. After screening and wash-out processes (days 26 to 33 pre-dose), a total of 156 patients were finally enrolled, and each patient was randomly assigned to 5 groups of 50 mg, 100 mg and 200 mg dosing groups of the compound of Example 1, a placebo group, and a febuxostat group. Patients in each group self-administered 1 tablet of a combination drug (colchicine, 0.6 mg/day) for the prevention of gout flare along with the assigned investigational drug (50 mg, 100 mg and 200 mg doses of the compound of Example 1, placebo, and 40 mg of febuxostat group) orally, once every morning, at about the same time each day, with water, regardless of food.
When ULT is performed using a xanthine oxidase inhibitor compound, since there is a high possibility of gout flare as the tophi dissolves at the end of the bone during the initial treatment period, it was designed to be used in combination with colchicine for the purpose of inhibiting it. The drug was administered for 84 days by setting the first dosing day of the drug as day 1, and basic tests, serum uric acid concentration and the like were measured at clinic visits on 14 days (week 2), 28 days (week 4), 56 days (week 8), and 84 days (week 12) during the dosing period to determine whether TEAEs occurred. After the end of drug administration, a safety follow-up was performed for an additional 2 weeks (98 days, week 14).
Among all patient groups participating in the clinical trial, although the administration was stopped for 3 patients due to headache, gout flare in the left ankle, and liver dysfunction in the 100 mg dosing group of Example 1 and for 1 patient due to an increase in hepatic enzyme in the 200 mg dosing group, no significant treatment emergency adverse event (TEAE) was found in the remaining patient groups.

[2] = Pharmacokinetics according to renal function of patients; conditions: for AUC(0-t) / AUC / Cmax: both sexes, human, plasma, oral, 200 mg, 200 mg once daily, Day 7, plasma; for AUC(0-t): read-out: AUC0-t (AUC0-48 h), geometric LS mean; for AUC: read-out: AUCtau, geometric LS mean; for Cmax: read-out: Cmax, ss, geometric LS mean
Procedure: (§1) PK and PD of the compound of Example 1 were assessed under patient groups with various degrees of renal function. […] A total of 37 patients were classified into 4 groups as follows based on renal function according to eGFR which was calculated by MDRD formula: • Normal: eGFR≥90 mL/min/1.73 m^2, n=13 • Mild (mild renal function impairment): eGFR 60-less than 90 mL/min/1.73 m^2, n=8 • Moderate (moderate renal function impairment): eGFR 30-less than 60 mL/min/1.73 m^2, n=8 • Severe (severe renal function impairment): eGFR<30 mL/min/1.73 m^2 and not on hemodialysis, n=8
(§2) Blood and urine samples were collected before dosing and up to 24 or 48 hours after the final dosing for PK/PD assessment.
For the compound of Example 1, statistical analysis of pharmacokinetic parameters using an ANOVA model for the pharmacokinetic population is shown in Table 2 below. The ANOVA model was fitted to the log-transformed PK parameters, with renal function impairment group fitted as a fixed effect. Point estimates and 90% CIs for differences between the least square means on the log scale were exponentiated to express the results as ratios of geometric means and CIs on the original scale.

[3] = system: serum uric acid; assay: Pharmacodynamics (serum uric acid) according to renal function of patients; conditions: for AUEC0-24 of serum uric acid (baseline corrected), geometric LS mean / Cmean, 24 of serum uric acid (baseline corrected), geometric LS mean / Emax of serum uric acid (baseline corrected), geometric LS mean: 200 mg once daily, Day 7
Procedure: as §1, §2
An analysis of variance (ANOVA) model was fitted to the log-transformed baseline corrected PD parameters, with renal function impairment group fitted as a fixed effect. Point estimates and 90% CIs for differences between the least square means on the log scale were exponentiated to express the results as ratios of geometric means and CIs on the original scale.

[4] = normal renal function (control)

Structure (SMILES): CC(C)n1cc(C#N)c2cc(-n3cc(C(=O)O)cn3)ccc21 [Example 1, 1-(3-cyano-1-isopropyl-indol-5-yl)pyrazol-4-carboxylic acid]
- incidence of TEAEs ([1]; 50 mg, 100 mg and 200 mg groups versus placebo and febuxostat groups): showed no difference from the placebo group and the febuxostat group in the overall TEAE
- patients for whom administration was stopped (headache, gout flare in the left ankle, liver dysfunction) ([1]; 100 mg dosing group): 3 patients
- patients for whom administration was stopped (increase in hepatic enzyme) ([1]; 200 mg dosing group): 1 patient
- AUC0-t, ratio of geometric LS means ([2]; Mild/Normal): 1.23
- AUCtau, ratio of geometric LS means ([2]; Mild/Normal): 1.23
- Cmax, ss, ratio of geometric LS means ([2]; Mild/Normal): 1.32
- AUC0-t, ratio of geometric LS means ([2]; Moderate/Normal): 1.19
- AUCtau, ratio of geometric LS means ([2]; Moderate/Normal): 1.17
- Cmax, ss, ratio of geometric LS means ([2]; Moderate/Normal): 1.15
- AUC0-t, ratio of geometric LS means ([2]; Severe/Normal): 1.16
- AUCtau, ratio of geometric LS means ([2]; Severe/Normal): 1.26
- Cmax, ss, ratio of geometric LS means ([2]; Severe/Normal): 0.885
- AUC(0-t) ([2]; mild impairment): 36.5 µg·h/mL
- AUC ([2]; mild impairment): 38.1 µg·h/mL
- Cmax ([2]; mild impairment): 7.46 µg/mL
- AUC(0-t) ([2]; moderate impairment): 35.2 µg·h/mL
- AUC ([2]; moderate impairment): 36.1 µg·h/mL
- Cmax ([2]; moderate impairment): 6.49 µg/mL
- AUC(0-t) [2, 4]: 29.7 µg·h/mL
- AUC [2, 4]: 30.9 µg·h/mL
- Cmax [2, 4]: 5.64 µg/mL
- AUC(0-t) ([2]; severe impairment): 34.3 µg·h/mL
- AUC ([2]; severe impairment): 38.9 µg·h/mL
- Cmax ([2]; severe impairment): 4.99 µg/mL
- AUEC0-24, ratio of geometric LS means ([3]; Mild/Normal): 0.980
- Cmean, 24, ratio of geometric LS means ([3]; Mild/Normal): 0.988
- Emax, ratio of geometric LS means ([3]; Mild/Normal): 0.979
- AUEC0-24, ratio of geometric LS means ([3]; Moderate/Normal): 1.02
- Cmean, 24, ratio of geometric LS means ([3]; Moderate/Normal): 1.03
- Emax, ratio of geometric LS means ([3]; Moderate/Normal): 1.02
- AUEC0-24, ratio of geometric LS means ([3]; Severe/Normal): 1.05
- Cmean, 24, ratio of geometric LS means ([3]; Severe/Normal): 1.03
- Emax, ratio of geometric LS means ([3]; Severe/Normal): 0.911
- GLSMRs for Cmean,24, Emax and AUEC0-24 of sUA ([3]; across all renal function impairment groups versus normal): approximately 1
- AUEC0-24 of serum uric acid (baseline corrected), geometric LS mean ([3]; mild impairment): 111 mg·h/dL
- Cmean, 24 of serum uric acid (baseline corrected), geometric LS mean ([3]; mild impairment): 4.53 mg/dL
- Emax of serum uric acid (baseline corrected), geometric LS mean ([3]; mild impairment): 4.43 mg/dL
- AUEC0-24 of serum uric acid (baseline corrected), geometric LS mean ([3]; moderate impairment): 115 mg·h/dL
- Cmean, 24 of serum uric acid (baseline corrected), geometric LS mean ([3]; moderate impairment): 4.74 mg/dL
- Emax of serum uric acid (baseline corrected), geometric LS mean ([3]; moderate impairment): 4.63 mg/dL
- AUEC0-24 of serum uric acid (baseline corrected), geometric LS mean [3, 4]: 113 mg·h/dL
- Cmean, 24 of serum uric acid (baseline corrected), geometric LS mean [3, 4]: 4.59 mg/dL
- Emax of serum uric acid (baseline corrected), geometric LS mean [3, 4]: 4.52 mg/dL
- AUEC0-24 of serum uric acid (baseline corrected), geometric LS mean ([3]; severe impairment): 119 mg·h/dL
- Cmean, 24 of serum uric acid (baseline corrected), geometric LS mean ([3]; severe impairment): 4.72 mg/dL
- Emax of serum uric acid (baseline corrected), geometric LS mean ([3]; severe impairment): 4.12 mg/dL
